Paper PMC10533412, “Phosphoantigens glue butyrophilin 3A1 and 2A1 to activate Vγ9Vδ2 T cells” (Nature, 2023)
“And” between values parts separate entries of the source, which are not always exact repeats. Identical values can stand only once. Like-named read-outs stand apart in the source and are kept apart here.

Tests used:
[1] = tested on: Vγ9Vδ2 T cells; details: cited from earlier work
[2] = target: T1, BTN3A1 B30.2 domain (Homo sapiens, UniProt O00481); experiment: ITC: pAg binding to the BTN3A1 B30.2 domain; details: 25 °C, read-out: KD, pAg binding to BTN3A1 B30.2 alone
T1 construct: The BTN3A1 B30.2 domain was expressed and purified as described previously; made in house
Experimental: (§1) ITC binding fits were calculated using MicroCal Analysis software.
For pAg binding to the BTN3A1 B30.2 domain, the sample cell and injection syringe were filled with the buffer containing 100 µM protein and 1 mM HMBPP, respectively, or 400 µM protein and 4 mM DMAPP (IPP), respectively.

[3] = tested on: MIA PaCa-2 cells; experiment: Cell killing assay: cytotoxicity of Vγ9Vδ2 T cells towards pAg- or zoledronate-treated MIA PaCa-2 cells (luciferase); assay type: cell-based, human; details: Homo sapiens, MIA PaCa-2, read-out: EC50 (M) for MIA PaCa-2 cell lysis mediated by HMBPP analogs and Vγ9Vδ2 T cells
Experimental: (§4) MIA PaCa-2 cells were infected with lentivirus bearing luciferase transgene. Luciferase-positive cells were plated at 5.0 × 10^3 cells per well in 384-well plates 1 day before transfection. All plasmids were transfected into BTN2A^−/− MIA PaCa-2 (BTN2A1/BTN2A2 KO) cells using Lipofectamine 2000 reagent. […] Stable-lite luciferase (Vazyme) was added to each well and the luciferase signal was immediately measured by using the PerkinElmer EnVision microplate reader.
(§5) Percentage of lysis was calculated using the following equation: percentage of specific lysis = (maximum luciferase − experimental luciferase)/maximum luciferase × 100.

[4] = tested on: VpBTN1 BFI–VpBTN3 BFI; experiment: ITC: VpBTN1 BFI binding to VpBTN3 BFI in the presence of pAg; set-up: species or system alpaca (Vicugna pacos)
Experimental: (§2) ITC experiments were performed using the MicroCal PEAQ-ITC instrument (GE Healthcare) at 25 °C. We used an initial injection of 0.4 μl followed by 19 injections (2 µl each) at 150 s time intervals. ITC binding fits were calculated using MicroCal Analysis software. The samples were prepared using a buffer (20 mM HEPES pH 7.5, 150 mM NaCl).
(§3) ITC experiments of HMBPP, DMAPP or IPP binding to the VpBTN3 BFI (or the preconditioned VpBTN3 BFI and VpBTN2 BFI complex) and VpBTN2 BFI (or VpBTN1 BFI) binding to VpBTN3 BFI in the presence of HMBPP, DMAPP or IPP were performed according to the same procedures as for the BTN3A1 B30.2 and BTN2A1 B30.2.

[5] = tested on: BTN2A−/− MIA PaCa-2 (BTN2A1/BTN2A2 KO) cells; experiment: Cell killing assay with BTN2A−/− MIA PaCa-2 (BTN2A1/BTN2A2 KO) cells expressing BTN2A1/BTN2A2 variants; details: replicates and mean
Experimental: as §4, §5

[6] = target: VpBTN3 BFI (Vicugna pacos, UniProt A0A345DF50); experiment: ITC: pAg binding to VpBTN3 BFI; set-up: species or system alpaca (Vicugna pacos)
Experimental: as §2, §3

[7] = target: T2, preconditioned BTN2A1–BTN3A1 B30.2 complex (Homo sapiens, UniProt O00481+Q7KYR7); experiment: ITC: pAg binding to the preconditioned BTN2A1 B30.2 and BTN3A1 B30.2 complex
T2 construct: The BTN3A1 B30.2 domain was expressed and purified as described previously; 6xHis; made in house; host or cells: Escherichia coli BL21 (DE3) for BTN2A1 B30.2
Experimental: as §1
For HMBPP binding to the preconditioned BTN2A1 B30.2 and BTN3A1 B30.2 complex, BTN2A1 B30.2 (20 µM) and BTN3A1 B30.2 (10 µM) were incubated in the buffer at a 2:1 ratio and loaded into the sample cell, and the injection syringe was filled with buffer containing 100 µM HMBPP.
For DMAPP/IPP binding to the preconditioned BTN2A1 B30.2 and BTN3A1 B30.2 complex, BTN2A1 B30.2 (200 µM) and BTN3A1 B30.2 (100 µM) were incubated in buffer at a 2:1 ratio and loaded into the sample cell, and the injection syringe was filled with buffer containing 1 mM DMAPP/IPP.
For other pAgs, their concentrations were adjusted to 500 µM, and BTN2A1 B30.2 and BTN3A1 B30.2 were adjusted to 100 µM and 50 µM at a 2:1 ratio.

Sequence of VpBTN3 BFI (A0A345DF50 entry or part of it): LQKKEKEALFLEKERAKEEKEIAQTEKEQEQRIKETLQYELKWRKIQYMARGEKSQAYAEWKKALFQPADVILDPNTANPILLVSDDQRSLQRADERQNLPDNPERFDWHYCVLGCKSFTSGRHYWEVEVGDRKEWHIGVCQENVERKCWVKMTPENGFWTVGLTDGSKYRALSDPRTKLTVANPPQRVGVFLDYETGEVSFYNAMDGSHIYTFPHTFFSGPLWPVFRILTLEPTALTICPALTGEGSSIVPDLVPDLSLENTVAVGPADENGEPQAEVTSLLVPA
T1 sequence (O00481 322-513 limits assumed): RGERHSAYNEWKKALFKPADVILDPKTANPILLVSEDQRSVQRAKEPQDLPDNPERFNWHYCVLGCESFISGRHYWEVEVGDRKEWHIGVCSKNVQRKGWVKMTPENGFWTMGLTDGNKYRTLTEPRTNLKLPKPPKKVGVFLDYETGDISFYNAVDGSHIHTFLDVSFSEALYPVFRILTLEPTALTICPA
T2 sequence (O00481 322-513 limits assumed): as above
T2 sequence (Q7KYR7 316-527 limits assumed): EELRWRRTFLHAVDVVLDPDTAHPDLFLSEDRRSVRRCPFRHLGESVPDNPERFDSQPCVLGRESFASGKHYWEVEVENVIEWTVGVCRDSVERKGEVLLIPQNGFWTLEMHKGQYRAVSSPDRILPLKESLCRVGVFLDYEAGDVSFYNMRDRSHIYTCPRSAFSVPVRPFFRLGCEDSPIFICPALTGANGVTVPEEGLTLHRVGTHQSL

CC(C)=CCOP(=O)(O)OP(=O)(O)O [Compound 2, 3-methylbut-2-en-1-yl diphosphate]
Vγ9Vδ2 T cell activation [1]: weakly activate
Kd [2]: 120 µM
EC50 [3]: 3.38e-05 M
VpBTN1 binding to VpBTN3 in the presence of pAg [4]: does not bind
Cytotoxicity of Vγ9Vδ2 T cells (percentage of specific lysis) ([5]; DMAPP log concentration -3, 2A1 WT cells): 67.6357% and 66.8005% and 66.45% and 64.9272%
Cytotoxicity of Vγ9Vδ2 T cells (percentage of specific lysis) ([5]; DMAPP log concentration -3, 2A1 ∆C cells): 50.07% and 46.3428% and 49.8006% and 54.0592%
Cytotoxicity of Vγ9Vδ2 T cells (percentage of specific lysis) ([5]; DMAPP log concentration -4, 2A1 WT cells): 51.6139% and 52.9591% and 50.43% and 46.7133%
Cytotoxicity of Vγ9Vδ2 T cells (percentage of specific lysis) ([5]; DMAPP log concentration -4, 2A1 ∆C cells): 32.85% and 28.2229% and 33.1127% and 37.2268%
Cytotoxicity of Vγ9Vδ2 T cells (percentage of specific lysis) ([5]; DMAPP log concentration -5, 2A1 WT cells): 27.5187% and 30.1465% and 24.7% and 16.4296%
Cytotoxicity of Vγ9Vδ2 T cells (percentage of specific lysis) ([5]; DMAPP log concentration -5, 2A1 ∆C cells): 7.57% and 3.153% and 7.027% and 12.531%
Cytotoxicity of Vγ9Vδ2 T cells (percentage of specific lysis) ([5]; DMAPP log concentration -6, 2A1 WT cells): 16.7353% and 16.8396% and 11.83% and 1.904%
Cytotoxicity of Vγ9Vδ2 T cells (percentage of specific lysis) ([5]; DMAPP log concentration -6, 2A1 ∆C cells): -5.456% and -7.052% and -6.983% and -2.333%
Cytotoxicity of Vγ9Vδ2 T cells (percentage of specific lysis) ([5]; DMAPP log concentration -7, 2A1 WT cells): 14.3939% and 14.8552% and 15.57% and 17.4711%
Cytotoxicity of Vγ9Vδ2 T cells (percentage of specific lysis) ([5]; DMAPP log concentration -7, 2A1 ∆C cells): -6.482% and -4.367% and -8.1249% and -6.954%
Cytotoxicity of Vγ9Vδ2 T cells (percentage of specific lysis) ([5]; DMAPP log concentration -8, 2A1 WT cells): 15.6376% and 16.0032% and 16.43% and 17.6429%
Cytotoxicity of Vγ9Vδ2 T cells (percentage of specific lysis) ([5]; DMAPP log concentration -8, 2A1 ∆C cells): -6.047% and -3.94% and -7.782% and -6.418%
Cytotoxicity of Vγ9Vδ2 T cells (percentage of specific lysis) ([5]; DMAPP log concentration -9, 2A1 WT cells): 15.8717% and 18.2997% and 15.33% and 11.8213%
Cytotoxicity of Vγ9Vδ2 T cells (percentage of specific lysis) ([5]; DMAPP log concentration -9, 2A1 ∆C cells): -5.239% and -4.736% and -6.266% and -4.716%
Cytotoxicity of Vγ9Vδ2 T cells (percentage of specific lysis) ([5]; DMAPP log concentration -10, 2A1 WT cells): 19.1442% and 5.933% and 13.82% and 16.3962%
Cytotoxicity of Vγ9Vδ2 T cells (percentage of specific lysis) ([5]; DMAPP log concentration -10, 2A1 ∆C cells): -5.48% and -6.082% and -3.811% and -6.548%
Kd [6]: 92.7 µM
Kd ([7]; ITC, read-out: KD, pAg binding to the preconditioned BTN2A1–BTN3A1 B30.2 complex): 34.5 µM

C=C(C)CCO[P@@](=O)(O)OP(=O)(O)O [Compound 3, 3-methylbut-3-en-1-yl diphosphate]
Vγ9Vδ2 T cell activation [1]: weakly activate
Kd [2]: 658 µM
EC50 [3]: 0.00493 M
VpBTN1 binding to VpBTN3 in the presence of pAg [4]: does not bind
Cytotoxicity of Vγ9Vδ2 T cells (percentage of specific lysis) ([5]; IPP log concentration -3, 2A1 WT cells, listed as IPP): 80.272% and 79.8722% and 80.6% and 81.6589%
Cytotoxicity of Vγ9Vδ2 T cells (percentage of specific lysis) ([5]; IPP log concentration -3, 2A1 ∆C cells, listed as IPP): 66.24% and 65.5729% and 68.622% and 64.5211%
Cytotoxicity of Vγ9Vδ2 T cells (percentage of specific lysis) ([5]; IPP log concentration -4, 2A1 WT cells, listed as IPP): 65.5992% and 65.1182% and 63.37% and 59.3975%
Cytotoxicity of Vγ9Vδ2 T cells (percentage of specific lysis) ([5]; IPP log concentration -4, 2A1 ∆C cells, listed as IPP): 41.6% and 36.6007% and 47.2763% and 40.914%
Cytotoxicity of Vγ9Vδ2 T cells (percentage of specific lysis) ([5]; IPP log concentration -5, 2A1 WT cells, listed as IPP): 35.2807% and 27.2598% and 28.66% and 23.4468%
Cytotoxicity of Vγ9Vδ2 T cells (percentage of specific lysis) ([5]; IPP log concentration -5, 2A1 ∆C cells, listed as IPP): 1.679% and 1.84% and 2.699% and 0.4994%
Cytotoxicity of Vγ9Vδ2 T cells (percentage of specific lysis) ([5]; IPP log concentration -6, 2A1 WT cells, listed as IPP): 15.0716% and 6.17% and 6.634% and -1.341%
Cytotoxicity of Vγ9Vδ2 T cells (percentage of specific lysis) ([5]; IPP log concentration -6, 2A1 ∆C cells, listed as IPP): -15.39% and -15.1198% and -17.7309% and -13.3339%
Cytotoxicity of Vγ9Vδ2 T cells (percentage of specific lysis) ([5]; IPP log concentration -7, 2A1 WT cells, listed as IPP): 11.2422% and 4.023% and 5.64% and 1.654%
Cytotoxicity of Vγ9Vδ2 T cells (percentage of specific lysis) ([5]; IPP log concentration -7, 2A1 ∆C cells, listed as IPP): -18.31% and -18.7728% and -18.1549% and -17.992%
Cytotoxicity of Vγ9Vδ2 T cells (percentage of specific lysis) ([5]; IPP log concentration -8, 2A1 WT cells, listed as IPP): 11.2149% and 6.571% and 5.735% and -0.5797%
Cytotoxicity of Vγ9Vδ2 T cells (percentage of specific lysis) ([5]; IPP log concentration -8, 2A1 ∆C cells, listed as IPP): -16.71% and -15.5368% and -14.5401% and -20.0505%
Cytotoxicity of Vγ9Vδ2 T cells (percentage of specific lysis) ([5]; IPP log concentration -9, 2A1 WT cells, listed as IPP): 7.561% and 7.582% and 2.411% and -7.912%
Cytotoxicity of Vγ9Vδ2 T cells (percentage of specific lysis) ([5]; IPP log concentration -9, 2A1 ∆C cells, listed as IPP): -17.93% and -16.44% and -18.8245% and -18.5163%
Cytotoxicity of Vγ9Vδ2 T cells (percentage of specific lysis) ([5]; IPP log concentration -10, 2A1 WT cells, listed as IPP): 9.041% and 9.773% and 3.545% and -8.179%
Cytotoxicity of Vγ9Vδ2 T cells (percentage of specific lysis) ([5]; IPP log concentration -10, 2A1 ∆C cells, listed as IPP): -16.6% and -16.8802% and -17.0673% and -15.8455%
Kd [6]: 96.1 µM
Kd [7]: 625 µM
